Measurements as given in PMC9558053, “Development of a novel high-throughput screen for the identification of new inhibitors of protein S-acylation” (The Journal of Biological Chemistry, 2022).

Target: T1, human zDHHC2 (Homo sapiens, UniProt Q9UIJ5)
T1 construct: expressed in transfected cells; host or cells: HEK293T
T1 sequence (Q9UIJ5 1-367): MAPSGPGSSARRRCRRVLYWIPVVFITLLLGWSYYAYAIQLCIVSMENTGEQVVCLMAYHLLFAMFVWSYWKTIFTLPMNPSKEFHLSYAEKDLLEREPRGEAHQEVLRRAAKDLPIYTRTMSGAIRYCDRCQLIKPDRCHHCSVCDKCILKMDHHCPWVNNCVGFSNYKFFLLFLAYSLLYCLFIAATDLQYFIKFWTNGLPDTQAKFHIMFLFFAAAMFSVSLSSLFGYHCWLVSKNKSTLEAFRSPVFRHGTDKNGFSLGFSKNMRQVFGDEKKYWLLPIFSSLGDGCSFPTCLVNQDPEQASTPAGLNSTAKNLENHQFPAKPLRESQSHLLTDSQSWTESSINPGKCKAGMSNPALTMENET
Assay: TR-FRET high-throughput assay of zDHHC2 autoacylation (HA-zDHHC2 lipoparticles, NBD-palmitoyl-CoA)
Type: biochemical
Conditions: Ono; for inhibition at 4.2 µM: compound 4.2 μM; for inhibition at 12.5 µM: compound 12.5 μM
Description: S-acylation is a two-step process involving enzyme “autoacylation” (at the cysteine of the DHHC motif) followed by transfer of the acyl chain to a substrate protein. To identify potential inhibitors of S-acylation, we developed an assay measuring enzyme autoacylation and focused on zDHHC2 given its prominent role in synaptic function in the nervous system (Fig. 1A). The assay monitors time-resolved FRET (TR-FRET) between the energy donor terbium cryptate (attached to an antibody recognizing hemagglutinin [HA]-tagged zDHHC2) and the acceptor fluorophore nitrobenzoxadiazole (NBD) (attached to the lipid group). The excitation of the energy donor terbium cryptate (360 nm) followed by its emission at 480 nm results in energy transfer to the acceptor NBD and emission at 539 nm. Enzyme autoacylation by NBD-conjugated palmitoyl-CoA increases the proximity of the terbium cryptate and NBD, leading to an increase in FRET signal. The resulting interaction is quantified as the ratiometric measurement of NBD (539 nm) over terbium (480 nm) emission and constitutes the TR-FRET signal.
Figure 1 High-throughput screen (HTS) for the discovery of chemical compounds modulating human zDHHC2 autoacylation activity: TR-FRET-based assay.A, experimental design of the HTS. HA-tagged zDHHC2 enzyme expressed at the surface of lipoparticles was incubated for 15 min at room temperature (RT) with NBD-tagged palmitoyl-CoA and an anti-HA antibody coupled to terbium (Tb) cryptate. Autoacylation of zDHHC2 on its catalytic cysteine brings closer the FRET donor Tb cryptate bound to the anti-HA antibody to the NBD fluorophore coupled to the palmitate and triggers FRET that can be followed over time (time-resolved FRET [TR-FRET]). B, TR-FRET was measured with increasing concentrations of NBD-palmitoyl-CoA (NBD-C16:0-CoA) and either WT zDHHC2 (left panel) or catalytically dead zDHHC2 C157S (right panel) over a period of 35 min. C, experimental conditions of the HTS screen. About 350,000 compounds were incubated individually in 1536-well plates at a concentration of 4.2 μM with zDHHC2 lipoparticles (42 μg/ml stock) for a few minutes before the addition of a mix containing the Tb cryptate–tagged anti-HA antibody (1:200 dilution) and 1 μM of NBD-palmitoyl-CoA (NBD-C16:0-CoA). TR-FRET was measured after a 15 min incubation at room temperature on a Biotek Synergy Neo apparatus. Results are given as a ratio between the FRET signal measured over a background baseline. D, histogram representation of ONO library screen showing the percentage of activity of zDHHC2 (as measured by TR-FRET) in the presence of each compound. The graph represents the number of compounds that are either activating (0 to 100) or inhibiting (0 to −100) zDHHC2 activity. […]

Row | Structure (SMILES) | inhibition at 4.2 µM [%] | inhibition at 12.5 µM [%]
1 | O=C(Nc1cccc2c1OC(c1nnn[nH]1)CN2)c1ccc(OCCCCc2ccccc2)cc1 (stereo not shown) [TTZ-2, N-(2-(1H-Tetrazol-5-yl)-3,4-dihydro-2H-benzo[b][1,4]oxazin-8-yl)-4-(4-phenylbutoxy)benzamide] | 45 | 69
2 | CCCCCCCOc1ccc(C(=O)Nc2cccc3c2OC(c2nnn[nH]2)CN3)cc1 (stereo not shown) [TTZ-1, N-(2-(1H-Tetrazol-5-yl)-3,4-dihydro-2H-benzo[b][1,4]oxazin-8-yl)-4-(heptyloxy)benzamide] | 32 | 61
